These results are taken from patent US8003628B2, “Methods of inhibiting osteoclast activity” (The Trustees of The University of Pennsylvania, priority 1999, dated 2011).

One assay addresses osteoclast formation. The procedure:
Cytochemical staining for TRAP is widely used for identifying osteoclasts in vivo and in vitro. Naphthol AS-MX phosphate 5 mg. Sigma, St. Louis, Mo.) is resolved in 0.5 ml of N,N-dimethylformamide (Wako). Thirty milligrams of fast red violet LB salt (Sigma) and 50 ml of 0.1 M sodium acetate buffer (pH 5.0) containing 50 mM sodium tartratet are added to the mixture (the TRAP-staining solution). Cells are fixed with 3.7% (v/v) formaldehyde in Ca^2−- and Mg^2+-free phosphate-buffered saline [PBS(−)] for 10 min. fixed again with ethanol-acetone (50:50, v:v) for 1 min. and incubated with the TRAP-staining solution for 10 min. at room temperature. TRAP-positive osteoclasts appear as red cells. The incubation period longer than 10 min. should be avoided since cells other than osteoclasts become weakly positive with time. After staining, cells are washed with distilled water, and TRAP-positive multinucleated cells having three or more nuclei are counted as osteoclasts under a microscope.

For assay [1], the system named is TRANCE-induced marrow cultures. In words: TRANCE-induced marrow cultures. It is filed as cell-based. As to conditions: reciprocal dose-dependence of WP9QY and TRANCE. On the procedure: This peptide (5-500 μM) was tested for its effect on osteoclast formation using the co-culture system induced by 1,250H2D3 and PGE2. […] There was a reciprocal dose-dependence of WP9QY and TRANCE. Thus, WP9QY is capable of interfering not only with TNF/TNF receptor (1) interaction but also with RANK Ligand/RANK interaction, thereby decreasing the osteoclastogenic potential of this cytokine.

Another assay has as its system L929 lymphocytes. The settings on record: Takasaki et al. 1997; cited from earlier work.
The target of assay [2] is TNF-related activation-induced cytokine (TRANCE). In words: cell-based or functional assay.

The term IC50 denotes the concentration at which inhibition is half-maximal. On to `CC(C)C[C@@H]1NC(=O)[C@H](Cc2ccc(O)cc2)NC(=O)[C@H](CCC(N)=O)NC(=O)[C@H](CO)NC(=O)[C@H](Cc2c[nH]c3ccccc23)NC(=O)[C@@H](NC(=O)[C@@H](N)Cc2ccc(O)cc2)CSSC[C@@H](C(=O)N[C@@H](Cc2ccc(O)cc2)C(=O)O)NC1=O` [WP9QY], for which, on osteoclast formation (250 μM vs 5 μM), the “IC50 osteoclastogenesis relative to IC50 TNF/TNF receptor (1) interaction” value amounted to 50 fold. For the same molecule, in the assay on osteoclast formation (co-culture system, peptide 5-500 μM), the “effect on osteoclastogenesis” value was “dose- and time-dependently inhibited”. Also, the half-maximal inhibitory concentration (IC50) in the assay on osteoclast formation (read-out: IC50, inhibition of osteoclastogenesis, co-culture system induced by 1,250H2D3 and PGE2, peptide 5-500 μM) amounted to 250 µM. Besides, in assay [1], the “effect on TRANCE-induced marrow cultures” value is recorded as “inhibits TRANCE-induced marrow cultures”. Moreover, the “antagonism of effects of TNF-binding to TNF-α receptor (1)” value in the assay on L929 lymphocytes was “efficiently antagonized”.

Consider WP9QY (peptide), for which the osteoclast formation in the co-culture system induced by 1,25(OH)2D3 and PGE2 (IC50) in assay [2] worked out at 250 µM.
